Measurements: patent US20240208901A1, “Deuterated 3,3'-Diselenodipropionic Acid (DSePA) and Its Use as an Anticancer or Radioprotective Agent” (Secretary, Department of Atomic Energy, priority 2022, published 2024)

How the values were obtained:
WI-26 VA4 cells = test: MTT assay, toxicity in non-cancerous lung fibroblast WI-26 VA4 cells; assay type: cell-based, human; settings: Homo sapiens, WI26VA4, 48 h post treatment, read-out: IC50 for inhibiting the cell proliferation
Source text: Therefore, D-DSePA was compared with un-deuterated DSePA for its anticancer activity in A549, H1975 and H3122 cell lines which are representative of NSCLC. […] The plot of percent (%) cytotoxicity (100-% viability) versus the concentration of DSePA/D-DSePA was used to estimate the half maximum concentration (IC50) of above compounds to inhibit the proliferation of cells. […] Similarly, the toxicity of DSePA/D-DSePA was studied in non-cancerous lung fibroblast cells, WI-38 and WI-26 VA4 in the concentration range of 0.1 to 1000 μM at 48 h post treatment by MTT assay (FIG. 9D and 9E). […] Employing these values, the therapeutic index (IC50 in normal lung cell/IC50 in lung cancer cell) of DSePA and D-DSePA in different pairs of normal versus cancerous cells (viz., A549/WI-38, A549/WI-26 VA4, H1975/WI-38, H1975/WI-26 VA4, H3122/WI-38 and H3122/WI-26 VA4) was calculated (Table-3). […]
MTT Assay—To evaluate the anti-proliferative effect of D-DScPA and DScPA, Cells (˜5×10^3) suspended in 100 μl of complete culture medium were seeded in each well of 96 well plates. […] The percentage (%) cytotoxicity was calculated from the decrease in absorbance at 570 nm of treated groups as compared to that of control group. […] The therapeutic index was calculated by normalizing the IC50 concentration of D-DSePA/DSePA in non-cancerous cells to that in cancerous cells.

A549 cells = test: Clonogenic assay, combinatorial treatment with γ-irradiation in A549 cells; assay type: cell-based, human
Method: Further, clonogenic assay is considered as the gold standard method for evaluating the anticancer activity of any compound and is also a good indicator of the in vivo efficacy of any anticancer compound. Therefore, the therapeutic index of DSePA and D-DSePA in A549/WI-38 cells was also validated by employing the clonogenic assay. For this, A549/WI-38 cells were treated with the varying concentrations (0.1-2 μM)/(1-500 μM) of DSePA/D-DSePA for seven days and the survival fraction was calculated by counting the number of surviving clones (FIG. 11A). The plot of survival fraction verses the concentration of DScPA/D-DSCPA was used to estimate the IC50 of above compounds to inhibit the growth of A549/WI-38 cells. […] This clearly confirmed that deuteration of DScPA reduced its toxicity in normal cells without compromising its efficacy in cancer cells. Since anticancer agents are intended to be used in combination with radiation, DSePA/D-DSePA at a treatment concentration of 0.5 μM (dose close to IC50 as determined by clonogenic assay) was combined with varying absorbed doses (2-8 Gy) of γ-irradiation and the effect of combinatorial treatment on the viability of A549 cells was determined by clonogenic assay (FIG. 12A & 12B). For this, A549 cells exposed to the varying absorbed doses (2-8 Gy) of γ-radiation were immediately treated with DScPA/D-DScPA and cultured for seven days prior to clonogenic assay. […] The D10 value of the combinatorial treatment involving DScPA estimated was 4.5 Gy (FIG. 12B). Similarly, D10 value of the combinatorial treatment involving D-DSePA estimated was 4 Gy. From these values, the dose modification factor (DMF or the ratio of the D10 of combinatorial treatment to that of D10 of radiation) of DScPA and D-DScPA estimated was 0.87±0.01 and 0.83±0.02 respectively. […] While the objective of radiotherapy is to achieve tumor control, it is also known to cause normal tissue toxicity. Previously, DSePA has been reported to protect normal cells from lethal effects of γ-radiation. Thus radio-protective activity of D-DSePA was compared with DScPA in terms of their abilities to protect non-cancerous lung fibroblast (WI-38) cells against γ-irradiation induced cell death. For this, WI-38 cells were pretreated with DSePA/D-DScPA for 24 h at an identical concentration of 0.5 μM (close to IC50 required to inhibit growth of A549 lung cancer cells by clonogenic assay) and then exposed to varying doses (2-12 Gy) of γ-irradiation. The survival of cells against radiation exposure was estimated by clonogenic assay and the dose response curve was prepared in the presence and absence of drug (DSePA/D-DScPA) (FIG. 12C & 12D). By using this dose response curve, the dose modification factor (DMF or the ratio of the D10 of radiation plus drug and D10 of radiation alone) of DSePA and D-DSePA estimated was 1.12±0.03 and 1.16±0.05 respectively.
Clonogenic assay—Clonogenic assay was performed according to the method reported previously. […] After 7 days, colonies were fixed with absolute methanol for 5 min, stained with 0.5% crystal violet for 5 min, washed with distilled water to remove excess stain and counted manually under a stereo microscope. […] The plating efficiency and the survival fraction under irradiated and drug treated conditions were calculated using following formulae: […]
The plating efficiency of A549 and WI38 cells was calculated by seeding ˜300 and ˜500 cells respectively. […]

SMILES: O=C(O)CC[Se][Se]CCC(=O)O [DSePA, 3,3′-diselenodipropionic acid]
- IC50 (WI-26 VA4 cells): 151 ± 3.3 µM
- dose modification factor (DMF, D10 of combinatorial treatment / D10 of radiation) (A549 cells; 0.5 μM drug immediately after γ-radiation (2-8 Gy)): 0.87±0.01
- D10 value (decimal reduction dose) of the combinatorial treatment (A549 cells; γ-radiation 2-8 Gy then 0.5 μM drug immediately, seven days, radiation alone D10 5 Gy): 4.5 Gy
